For assay [1], the target named is D(1A) dopamine receptor (Bos taurus, UniProt Q95136). Nature of the assay: Binding affinity towards bovine dopamine D1 receptor by [3H]-SCH- 23390 displacement.
Assay [2] addresses D(3) dopamine receptor (Homo sapiens, UniProt P35462). Description: Binding affinity towards human dopamine D3 receptor by [3H]spiperone displacement.
Assay [3] concerns the target T1, D(2) dopamine receptor (Homo sapiens, UniProt P14416). Description: Binding affinity towards human Dopamine receptor D2 (short) by [3H]-spiperone displacement.
The target of assay [4] is T2, D(4) dopamine receptor (Homo sapiens, UniProt P21917).
T2 sequence (P21917 whole entry): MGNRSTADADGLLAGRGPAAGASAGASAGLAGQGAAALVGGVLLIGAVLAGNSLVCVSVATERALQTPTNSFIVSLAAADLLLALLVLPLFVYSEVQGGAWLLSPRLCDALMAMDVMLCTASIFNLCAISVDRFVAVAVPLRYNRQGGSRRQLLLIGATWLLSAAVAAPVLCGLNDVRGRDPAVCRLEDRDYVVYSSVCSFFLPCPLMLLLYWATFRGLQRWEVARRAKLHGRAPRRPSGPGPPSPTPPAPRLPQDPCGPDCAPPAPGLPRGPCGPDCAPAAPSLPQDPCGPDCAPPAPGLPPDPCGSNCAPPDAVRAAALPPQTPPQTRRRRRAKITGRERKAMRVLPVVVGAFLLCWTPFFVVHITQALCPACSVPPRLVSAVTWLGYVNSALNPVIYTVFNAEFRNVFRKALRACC
Nature of the assay: Binding affinity towards human Dopamine receptor D4 by [3H]spiperone displacement.

For assay [5], the target named is T1, D(2) dopamine receptor. Nature of the assay: Binding affinity towards human Dopamine receptor D2 (long) by [3H]-spiperone displacement.

Chain of D(1A) dopamine receptor (Q95136 whole entry): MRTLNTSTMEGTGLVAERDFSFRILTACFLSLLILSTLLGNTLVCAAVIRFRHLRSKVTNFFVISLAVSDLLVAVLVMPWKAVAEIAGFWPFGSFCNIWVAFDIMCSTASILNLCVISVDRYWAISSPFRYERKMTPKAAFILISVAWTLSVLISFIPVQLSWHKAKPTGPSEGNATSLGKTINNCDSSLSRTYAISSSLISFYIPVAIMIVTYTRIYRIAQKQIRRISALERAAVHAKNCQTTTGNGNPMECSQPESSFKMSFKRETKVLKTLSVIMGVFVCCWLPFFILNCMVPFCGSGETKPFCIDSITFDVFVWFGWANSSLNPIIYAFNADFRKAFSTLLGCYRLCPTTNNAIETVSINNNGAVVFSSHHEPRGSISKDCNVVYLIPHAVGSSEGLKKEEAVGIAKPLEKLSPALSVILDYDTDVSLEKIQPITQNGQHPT
T1 sequence (P14416 whole entry): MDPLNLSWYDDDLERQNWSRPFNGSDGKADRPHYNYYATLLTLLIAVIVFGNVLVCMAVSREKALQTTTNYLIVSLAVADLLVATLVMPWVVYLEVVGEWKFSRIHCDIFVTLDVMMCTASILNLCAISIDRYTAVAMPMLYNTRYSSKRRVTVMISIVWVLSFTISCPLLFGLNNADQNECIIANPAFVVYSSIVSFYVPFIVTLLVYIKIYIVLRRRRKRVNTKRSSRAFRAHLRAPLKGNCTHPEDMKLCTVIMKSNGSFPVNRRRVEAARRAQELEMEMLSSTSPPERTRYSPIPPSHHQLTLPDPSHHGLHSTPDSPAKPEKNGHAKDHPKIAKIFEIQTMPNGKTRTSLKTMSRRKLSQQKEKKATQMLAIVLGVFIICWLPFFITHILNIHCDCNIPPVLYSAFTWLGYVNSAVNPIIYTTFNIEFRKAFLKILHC
Chain of D(3) dopamine receptor (P35462 whole entry): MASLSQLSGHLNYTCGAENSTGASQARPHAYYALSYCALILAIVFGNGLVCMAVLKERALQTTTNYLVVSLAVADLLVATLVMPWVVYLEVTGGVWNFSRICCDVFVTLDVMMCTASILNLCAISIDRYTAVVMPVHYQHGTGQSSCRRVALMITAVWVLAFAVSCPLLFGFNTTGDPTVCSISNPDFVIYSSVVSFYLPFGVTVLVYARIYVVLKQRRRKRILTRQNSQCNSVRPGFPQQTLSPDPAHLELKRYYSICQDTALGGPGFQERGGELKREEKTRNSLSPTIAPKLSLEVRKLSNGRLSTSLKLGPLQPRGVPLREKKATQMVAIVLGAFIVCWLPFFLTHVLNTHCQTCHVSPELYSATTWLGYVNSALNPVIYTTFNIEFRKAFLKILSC

As for `COc1cc(N(C)C(C)=O)c(Cl)cc1C(=O)NC[C@@H]1CCN(Cc2ccccc2)C1`, the Ki (commonly a measure of affinity in units of concentration, obtained from inhibition or displacement) in assay [1] is 75 µM; in assay [2] it was 7.2 µM; in assay [3], 19 µM; in assay [4] it was 4.2 µM; in assay [5] it was 30 µM.

Take `CNc1cc(OC)c(C(=O)NC[C@H]2CN(Cc3ccccc3)C[C@@H]2C)cc1Cl`: the Ki in assay [1] stood at 20 µM; in assay [2] it was 0.32 µM; in assay [3], 0.12 µM; in assay [4], 0.15 µM; in assay [5] it was 0.33 µM.

On to `CCC[C@H]1CN(Cc2ccccc2)C[C@H]1CNC(=O)c1cc(Cl)c(NC)cc1OC`, for which the Ki in assay [1] worked out at 0.24 µM; in assay [2] it was 0.31 µM; in assay [3], 0.028 µM; in assay [4] it was 0.046 µM; in assay [5], 0.045 µM.

With `CNc1cc(OC)c(C(=O)NC[C@H]2CCN(Cc3ccccc3)C2)cc1Cl`, the Ki amounted to 9.7 µM in assay [1]; 0.36 µM in assay [2]; 0.086 µM in assay [3]; 0.023 µM in assay [4]; 0.11 µM in assay [5].

In assay [1], `CCN1CCC[C@H]1CNC(=O)c1cc(S(N)(=O)=O)ccc1OC` [LEVOSULPIRIDE] came in with a Ki of 50 µM.

For `COc1ccc(Br)cc1C(=O)NC[C@@H]1CCN(Cc2ccccc2)C1`, the Ki stood at 3.7 µM in assay [1]; 1.1 µM in assay [2]; 1.6 µM in assay [3]; 0.048 µM in assay [4]; 3.1 µM in assay [5].

Consider `COc1cc(N)c(Cl)cc1C(=O)NC[C@H]1CCN(Cc2ccccc2)C1`, for which the Ki in assay [1] came to 11 µM; in assay [2], 2.2 µM; in assay [3], 0.54 µM; in assay [4], 0.14 µM; in assay [5], 0.82 µM.

On to `CCC[C@@H]1CN(Cc2ccccc2)C[C@H]1CNC(=O)c1cc(Cl)c(NC)cc1OC`, for which the Ki in assay [1] was determined as 3.3 µM; in assay [2], 0.27 µM; in assay [3] it was 0.024 µM; in assay [4], 0.13 µM; in assay [5], 0.054 µM.

With `CNc1cc(OC)c(C(=O)NC[C@@H]2CN(Cc3ccccc3)C[C@H]2C)cc1Cl`, the Ki in assay [1] worked out at 14 µM; in assay [2] it was 0.21 µM; in assay [3], 0.01 µM; in assay [4], 0.22 µM; in assay [5], 0.028 µM.

Turning to `CNc1cc(OC)c(C(=O)NC[C@H]2CN(Cc3ccccc3)C[C@H]2C)cc1Cl`, the Ki in assay [1] came to 11 µM; in assay [2], 0.11 µM; in assay [3] it was 0.079 µM; in assay [4] it was 0.047 µM; in assay [5] it was 0.15 µM.

Consider `CCC[C@@H]1CN(Cc2ccccc2)C[C@@H]1CNC(=O)c1cc(Cl)c(NC)cc1OC`, for which the Ki in assay [1] turned out to be 2.8 µM; in assay [2], 0.031 µM; in assay [3], 0.19 µM; in assay [4], 0.2 µM; in assay [5], 0.19 µM.

In the case of `COc1cc(N)c(Cl)cc1C(=O)NC[C@@H]1CCN(Cc2ccccc2)C1`, the Ki in assay [1] was found to be 11 µM; in assay [2], 0.57 µM; in assay [3] it was 0.64 µM; in assay [4], 0.18 µM; in assay [5], 1.4 µM.

Take `COc1cc(N(C)C(C)=O)c(Cl)cc1C(=O)NC[C@H]1CCN(Cc2ccccc2)C1`: the inhibition constant (Ki) was determined as 87 µM in assay [1]; 11 µM in assay [2]; 28 µM in assay [3]; 7 µM in assay [4]; 38 µM in assay [5].

For `COc1ccc(Br)cc1C(=O)NC[C@H]1CCN(Cc2ccccc2)C1`, the Ki came out at 5.2 µM in assay [1]; 2.1 µM in assay [2]; 1.5 µM in assay [3]; 0.046 µM in assay [4]; 2 µM in assay [5].

In the case of `CNc1cc(OC)c(C(=O)NC[C@@H]2CCN(Cc3ccccc3)C2)cc1Cl`, the Ki in assay [1] stood at 5.1 µM; in assay [2], 0.047 µM; in assay [3] it was 0.058 µM; in assay [4], 0.019 µM; in assay [5], 0.11 µM.

Take `COc1cc(NC(C)=O)c(Cl)cc1C(=O)NC[C@H]1CCN(Cc2ccccc2)C1`: the Ki in assay [1] was found to be 41 µM; in assay [2], 8.7 µM; in assay [3] it was 25 µM; in assay [4], 0.34 µM; in assay [5], 27 µM.

Turning to `CCC[C@H]1CN(Cc2ccccc2)C[C@@H]1CNC(=O)c1cc(Cl)c(NC)cc1OC`, the Ki in assay [1] worked out at 4.1 µM; in assay [2] it was 0.35 µM; in assay [3], 0.54 µM; in assay [4], 0.99 µM; in assay [5], 0.98 µM.

For `CNc1cc(OC)c(C(=O)NC[C@@H]2CN(Cc3ccccc3)C[C@@H]2C)cc1Cl`, the Ki in assay [1] was determined as 12 µM; in assay [2], 0.57 µM; in assay [3] it was 0.021 µM; in assay [4] it was 0.24 µM; in assay [5], 0.051 µM.

In the case of `COc1cc(NC(C)=O)c(Cl)cc1C(=O)NC[C@@H]1CCN(Cc2ccccc2)C1`, the Ki in assay [1] came out at 35 µM; in assay [2], 2.7 µM; in assay [3] it was 21 µM; in assay [4], 0.25 µM; in assay [5], 19 µM.

Values taken from ChEMBL document CHEMBL1132075, “Enantio- and diastereocontrolled dopamine D1, D2, D3 and D4 receptor binding of N-(3-pyrrolidinylmethyl)benzamides synthesized from aspartic acid” (Bioorg Med Chem Lett, 1999).
